Measurements: patent US20220402908A1, “CXCR6 INHIBITORS AND METHODS OF USE” (Sanford Burnham Prebys Medical Discovery Institute, priority 2019, published 2022)

What was measured:
[1] = molecular target: T1, CXCR6 (Homo sapiens, UniProt O00574); assay: β-arrestin recruitment inhibition in CXCR6-expressing CHO-K1 cells (PathHunter, DiscoveRx); assay type: cell-based
Procedure: (§1) Compounds of Formula (I), (Ia), (Ib), (Ic), (Id), and (II) are tested for their ability to inhibit β-arrestin recruitment in CXCR6-expressing CHO-K1 cells using the β-galactosidase PathHunter Enzyme Complementation Platform from DiscoveRx. A detailed protocol for this assay is available on PubChem (AIDs 624129). Accordingly, 800 CHO-K1 cells expressing CXCR6 (DiscoveRx, Cat #93-0205C2) are seeded into the wells of a white opaque 1536-well plate, centrifuged, and incubated overnight at 37° C., 5% CO2. The next day, compounds of Formula (I), (Ia), (Ib), (Ic), (Id), and (II) and controls (CXCL16 (10 nM) or DMSO) are dispensed into wells and incubated for 1.5 h. The assay is terminated upon addition of lysis buffer, detection substrate, and enzyme. Luminescence is read on the Envision plate reader 1 h post-termination. All compounds are tested in a 10 pt dose-response curve in duplicate. Compounds will also be tested in a CXCR6-dependent cAMP assay using the Lance Ultra assay from PerkinElmer. Accordingly, 2 uL CXCR6-expressing cells are suspended in assay media (OptiMEM; 2% FBS; 1×P/S) and plated at 500 cells/well in 1536-well, white, TC plates and grown overnight at 37° C.; 5% CO2. 40 nL test compounds of Formula (I), (Ia), (Ib), (Ic), (Id), and (II) are added to cells using ECHO dispenser. 2 uL of 2.5 mM forskolin in stimulation buffer (HBSS; 5 mM HEPES; 0.1% BSA; 0.1 mM RO-20-1724) with or without 20 nM CXCL16 is transferred to wells using BioRAPTR. Wells treated with forskolin and CXCL16 serve as negative controls and wells treated with forskolin only serve as positive controls. Cells are incubated at room temperature for 30 min followed by addition of 2 uL each EU-cAMP tracer and ULight anti-cAMP Ab in detection buffer according to manufacturer's instruction. After 30 min at room temperature, TR-FRET is read using EnVision plate reader.

[2] = molecular target: T1, CXCR6; assay: CXCR6-dependent cAMP assay (Lance Ultra, PerkinElmer); assay type: cell-based; conditions: CXCR6-expressing cells, forskolin + CXCL16; Table B-1
Procedure: as §1

[3] = system: SK-Hep-1 cancer xenograft; assay: SK-Hep-1 cancer xenograft tumor growth; assay type: in vivo; conditions: compared to control; FIG. 1 legend
[4] = CXCR6-expressing CHO-K1 cells, Table B-1, read-out: IC50 (β-arrestin)

T1 sequence (O00574 whole entry): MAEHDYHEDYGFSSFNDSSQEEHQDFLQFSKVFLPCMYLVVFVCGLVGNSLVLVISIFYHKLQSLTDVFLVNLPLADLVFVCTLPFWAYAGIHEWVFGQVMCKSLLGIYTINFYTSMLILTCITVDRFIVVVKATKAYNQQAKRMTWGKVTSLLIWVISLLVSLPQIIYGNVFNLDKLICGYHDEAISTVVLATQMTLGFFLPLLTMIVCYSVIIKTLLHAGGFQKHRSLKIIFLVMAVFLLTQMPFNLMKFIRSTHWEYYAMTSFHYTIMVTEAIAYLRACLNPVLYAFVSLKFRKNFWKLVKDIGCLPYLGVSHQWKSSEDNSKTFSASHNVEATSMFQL

| Structure (SMILES) | IC50 [1, 4] | IC50 [1] | IC50 [2] | further results |
| --- | --- | --- | --- | --- |
| CCC(C)Oc1ccc(C(=O)N[C@@H]2C[C@H]3CCC[C@@H](C2)N3Cc2nc3c(C(F)(F)F)cccc3s2)cc1OC (stereo partly drawn) [4-(sec-butoxy)-3-methoxy-N-((1R,3s,5S)-9-((4-(trifluoromethyl)benzo[d]thiazol-2-yl)methyl)-9-azabicyclo[3.3.1]nonan-3-yl)benzamide] | < 100 nM | – | – | – |
| COc1cc(C(=O)N[C@@H]2C[C@H]3CCC[C@@H](C2)N3Cc2nc3c(C(F)(F)F)cccc3s2)ccc1OC(C)C [4-isopropoxy-3-methoxy-N-((1R,3s,5S)-9-((4-(trifluoromethyl)benzo[d]thiazol-2-yl)methyl)-9-azabicyclo[3.3.1]nonan-3-yl)benzamide] | – | 100 to 2000 nM | – | – |
| COc1cc(C(=O)N2C[C@H]3CCC[C@@H](C2)N3Cc2nc3c(C(F)(F)F)cccc3s2)cc(OC)c1OC [((1R,5S)-9-((4-(trifluoromethyl)benzo[d]thiazol-2-yl)methyl)-3,9-diazabicyclo[3.3.1]nonan-3-yl)(3,4,5-trimethoxyphenyl)methanone] | – | 100 to 2000 nM | – | – |
| COc1cc(C(=O)N[C@@H]2C[C@H]3CCC[C@@H](C2)N3Cc2nc3c(C(F)(F)F)cccc3s2)cc(OC)c1OC [Compound 1, 3,4,5-trimethoxy-N-((1R,3s,5S)-9-((4-(trifluoromethyl)benzo[d]thiazol-2-yl)methyl)-9-azabicyclo[3.3.1]nonan-3-yl)benzamide] | – | < 100 nM | – | – |
| COc1cc(C(=O)N[C@@H]2C[C@H]3CCC[C@@H](C2)N3CC(=O)Nc2ccccc2Cl)cc(OC)c1OC [N-((1R,3s,5S)-9-(2-((2-chlorophenyl)amino)-2-oxoethyl)-9-azabicyclo[3.3.1]nonan-3-yl)-3,4,5-trimethoxybenzamide] | 100 to 2000 nM | – | 2 to 5 µM | – |
| COc1cc(C(=O)N[C@@H]2C[C@H]3CCC[C@@H](C2)N3Cc2nc3c(Cl)c(Cl)ccc3s2)cc(OC)c1OC [N-((1R,3s,5S)-9-((4,5-dichlorobenzo[d]thiazol-2-yl)methyl)-9-azabicyclo[3.3.1]nonan-3-yl)-3,4,5-trimethoxybenzamide] | – | < 100 nM | – | – |
| COc1cc(C(=O)N[C@@H]2C[C@H]3CCC[C@@H](C2)N3Cc2nc3c(Cl)cccc3s2)cc(OC)c1OC [N-((1R,3s,5S)-9-((4-chlorobenzo[d]thiazol-2-yl)methyl)-9-azabicyclo[3.3.1]nonan-3-yl)-3,4,5-trimethoxybenzamide] | 100 to 2000 nM | – | 0.1 to 2 µM | – |
| COc1cc(C(=O)N[C@@H]2C[C@H]3CCC[C@@H](C2)N3Cc2cc3ccccc3s2)cc(OC)c1OC [N-((1R,3s,5S)-9-(benzo[b]thiophen-2-ylmethyl)-9-azabicyclo[3.3.1]nonan-3-yl)-3,4,5-trimethoxybenzamide] | 100 to 2000 nM | – | 5 to 20 µM | – |
| O=P1(N(CCCl)CCCl)NCCCO1 (stereo not drawn) [cyclophosphamide] | – | – | – | tumor growth, SK-Hep-1 cancer xenograft [3]: tumor growth reduction |
